EC99, EC50 and IC50 data for nine compounds are collected here from patent publication US10875855B2 (priority 2011, dated 2020).

Test [1] concerns influenza A virus (A/PR/8/34). The test can be described thus: microbe, parasite or virus in culture. The format is cell-based. The settings on record: mean all, class symbol; for EC99: read-out: bDNA EC99; for EC50: viral RNA 50% of control wells, read-out: bDNA EC50.
Test [2] concerns influenza A virus (A/PR/8/34). The test can be described thus: MDCK cytopathic effect (CPE) cell protection assay, ATP detection. The format is cell-based. The settings on record: Table 1, MDCK cells, A/PR/8/34, 72 hours, 50% cell protection, mean all, class symbol, read-out: MDCK IC50. Background: Damage to the host cells serves as the signal in cytopathic effect assays.
[3] abbreviates: Influenza A virus, PR/8, Table 1.
[4] abbreviates: Influenza A virus, PR/8, MDCK, 72 h.

Molecules are shown by their SMILES. Like-named read-outs stand apart in the source and are kept apart here.

As a reminder, the EC99 is the concentration needed for an effect of 99%. One may read the EC50 as the concentration that produces a half-maximal response. Broadly, the IC50 is the concentration that inhibits the measured activity by half. With `CC(C)(C)[C@@H](CS(=O)(=O)NCC(F)F)Nc1nc(-c2c[nH]c3ncc(F)cc23)ncc1F` [Compound 57, (S)—N-(2,2-difluoroethyl)-2-(5-fluoro-2-(5-fluoro-H-pyrrolo[2,3-b]pyridin-3-yl)pyrimidin-4-ylamino)-3,3-dimethylbutane-1-sulfonamide], in test [1] (setting [3]), the EC99 is < 0.3 µM and the EC50 was < 300 nM. Further, the IC50 in test [2] (setting [4]) was < 300 nM.

On to `CC(C)(C)[C@@H](CS(=O)(=O)NCC(F)(F)F)Nc1nc(-c2c[nH]c3ncc(F)cc23)ncc1F` [Compound 58, (S)-2-(5-fluoro-2-(5-fluoro-1H-pyrrolo[2,3-b]pyridin-3-yl)pyrimidin-4-ylamino)-3,3-dimethyl-N-(2,2,2-trifluoroethyl)butane-1-sulfonamide], for which, in test [1] (setting [3]), the EC99 is < 0.3 µM and the EC50 was < 300 nM. For the same compound, the IC50 in test [2] (setting [4]) is < 300 nM.

For `CC(C)(C)[C@@H](/C=C/C(=O)O)Nc1nc(-c2c[nH]c3ncc(F)cc23)ncc1F` [Compound 59, (R,E)-4-((5-fluoro-2-(5-fluoro-1H-pyrrolo[2,3-b]pyridin-3-yl)pyrimidin-4-yl)amino)-5,5-dimethylhex-2-enoic acid], in test [1] (setting [3]), the EC99 lay in the range of 0.3 to 3.3 µM and the EC50 is < 300 nM. In addition, in test [2] (setting [4]), the IC50 was < 300 nM.

As for `CC(C)(C)[C@@H](CS(=O)(=O)CC(=O)O)Nc1nc(-c2c[nH]c3ncc(F)cc23)ncc1F` [Compound 60, (S)-2-(2-(5-fluoro-2-(5-fluoro-1H-pyrrolo[2,3-b]pyridin-3-yl)pyrimidin-4-ylamino)-3,3-dimethylbutylsulfonyl)ethanoic acid], in test [1] (setting [3]), the EC99 was > 3.3 µM and the 50% effective concentration (EC50) lay within 300 to 3300 nM. Further, the IC50 in test [2] (setting [4]) is < 300 nM.

As to `CC(C)(C)[C@@H](CS(=O)(=O)CC(=O)O)Nc1nc(-c2c[nH]c3ncc(Cl)cc23)ncc1F` [Compound 61, (S)-2-(2-(2-(5-chloro-1H-pyrrolo[2,3-b]pyridin-3-yl)-5-fluoropyrimidin-4-ylamino)-3,3-dimethylbutylsulfonyl)ethanoic acid], in test [1] (setting [3]), the EC99 is 0.3 to 3.3 µM and the EC50 was < 300 nM. Also, the IC50 in test [2] (setting [4]) is < 300 nM.

As to `CC1(C(CC(=O)O)Nc2nc(-c3c[nH]c4ncc(F)cc34)ncc2F)CCC1` (centres unmarked) [Compound 63], in test [1] (setting [3]), the EC99 is < 0.3 µM and the EC50 was < 300 nM. In addition, the IC50 in test [2] (setting [4]) is < 300 nM.

For the compound `CC(C)(C)[C@@H](CC(O)C(F)(F)F)Nc1nc(-c2c[nH]c3ncc(F)cc23)ncc1F` (stereo partly drawn) [Compound 66, (4R)-1,1,1-trifluoro-4-((5-fluoro-2-(5-fluoro-1H-pyrrolo[2,3-b]pyridin-3-yl)pyrimidin-4-yl)amino)-5,5-dimethylhexan-2-ol], in test [1] (setting [3]), the EC99 lay in the range of 0.3 to 3.3 µM and the EC50 was < 300 nM. Besides, in test [2] (setting [4]), the IC50 is < 300 nM.

For the compound `CC(C)(C)[C@@H](CC(O)C(F)(F)F)Nc1nc(-c2c[nH]c3ncc(F)cc23)ncc1F` (stereo partly drawn) [Compound 67, (4R)-1,1,1-trifluoro-4-((5-fluoro-2-(5-fluoro-1H-pyrrolo[2,3-b]pyridin-3-yl)pyrimidin-4-yl)amino)-5,5-dimethylhexan-2-ol], the EC50 in test [1] (Table 1) is < 300 nM. The IC50 in test [2] is < 300 nM.

Regarding `CC(C)(C)[C@@H](Cn1cc(CO)nn1)Nc1nc(-c2c[nH]c3ncc(F)cc23)ncc1F` [Compound 68, (S)-(1-(2-((5-fluoro-2-(5-fluoro-1H-pyrrolo[2,3-b]pyridin-3-yl)pyrimidin-4-yl)amino)-3,3-dimethylbutyl)-1H-1,2,3-triazol-4-yl)methanol], in test [1] (setting [3]), the EC99 was 0.3 to 3.3 µM and the EC50 is < 300 nM. Besides, the half-maximal inhibitory concentration (IC50) in test [2] (setting [4]) was in the range of 300 to 3300 nM.
